Experimental data from PubChem BioAssay (NCI).
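Test compounds were applied to cells in 96-well plates for 48 hours at 5 doses. At the GI50, growth is halved. At the TGI there is no net growth.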

Experiments:
Experiment in all cases: growth of human tumour cells (NCI), 48 h
[1] = tested on: SK-MEL-2 melanoma
[2] = tested on: SF-539 CNS
[3] = tested on: UO-31 renal
[4] = tested on: NCI-H522 lung
[5] = tested on: SK-MEL-28 melanoma
[6] = tested on: SF-268 CNS
[7] = tested on: SK-OV-3 ovarian
[8] = tested on: NCI-H460 lung
[9] = tested on: HS 578T breast
[10] = tested on: DU-145 prostate

SMILES | TGI [1] [µM] | TGI [2] [µM] | TGI [3] [µM] | TGI [4] [µM] | TGI [5] [µM] | TGI [6] [µM] | TGI [7] [µM] | TGI [8] [µM] | TGI [9] [µM] | TGI [10] [µM] | GI50 [1] [µM] | GI50 [9] [µM] | GI50 [2] [µM] | GI50 [10] [µM] | GI50 [3] [µM] | GI50 [5] [µM] | GI50 [6] [µM] | GI50 [7] [µM] | GI50 [8] [µM] | GI50 [4] [µM]
CCOC(=O)c1cc(=O)n(C)c(=O)n1C | > 100 | > 100 | > 100 | > 100 | > 100 | > 100 | > 100 | > 100 | – | – | – | – | – | – | – | – | – | – | – | –
N#Cc1c2ccccc2c(Cc2ccc3c(c2)OCCOCCOCCOCCOCCO3)c2ccccc12 | 19.9 | 29.7 | 15.4 | 31.9 | 19.4 | 21.1 | 27.9 | 25.1 | – | – | – | – | – | – | – | – | – | – | – | –
Brc1ccccc2cc(-c3ccccc3)nc1-2 | 18.6 | 17.7 | 25.5 | 21.7 | 29.8 | 28.7 | 37.8 | 73.5 | > 100 | > 63.3 | – | – | – | – | – | – | – | – | – | –
COC(=O)[C@]12CC[C@@H](C)[C@H](C)[C@@H]1C1=CC[C@@H]3[C@@]4(C)C(C=O)=C[C@@](C)(CO)[C@@H]4[C@H](O)C[C@@]3(C)[C@]1(C)CC2 | 22.5 | 22.8 | 12.2 | – | 12.4 | 20.4 | 31.6 | 9.6 | 26.4 | 16.5 | 7.26 | 4.82 | 10.1 | 4.77 | 2.28 | 3.33 | 5.16 | 17 | 3.03 | –
O=S(=O)(NC1=NCCN1C(=S)SN1CCn2c1nsc2=S)c1ccc(Oc2ccccc2)cc1 | 75.5 | > 100 | > 100 | 69 | > 100 | > 100 | > 100 | > 100 | > 100 | > 100 | 29.3 | 27.5 | 49.5 | 31.7 | > 100 | > 100 | 57.3 | > 100 | 51.2 | 26.2
Cc1ccccc1NC(=O)Cc1nc2ccccc2s1 | 29.9 | 34.7 | 23.7 | 29.3 | 32.9 | 33 | 43.3 | 38.2 | – | – | – | – | – | – | – | – | – | – | – | –
O=S1(=O)c2ccccc2N(c2ccccc2)c2nnnn21 | > 100 | 35.7 | > 100 | 38.9 | 92.9 | > 100 | > 100 | > 100 | > 100 | > 100 | – | – | – | – | – | – | – | – | – | –
Cc1ccc(N(C=O)c2c([N+](=O)[O-])cc([N+](=O)[O-])c3c2=[N+]([O-])CN=3)cc1 | 42.2 | > 100 | > 100 | 48.2 | > 100 | > 100 | > 100 | > 100 | > 100 | 72.9 | – | – | – | – | – | – | – | – | – | –
COc1ccc(Oc2nc3cc(N)cc(N)c3nc2-c2ccccc2)cc1 | 87.5 | 61.1 | > 100 | > 100 | 49 | > 100 | 55 | > 100 | > 100 | > 100 | 25.1 | 24.3 | 23.3 | 69.4 | 28.5 | 19.6 | 20.8 | 25.5 | 30.6 | 31.4
O=C(Oc1ccccc1)N(c1ccccc1)c1ccccc1 | > 100 | > 100 | > 100 | – | – | > 100 | > 100 | 89.2 | – | > 100 | 30.6 | – | 30.4 | 42.9 | 15 | – | 33.1 | 47.3 | 26.4 | –
CCOC(=O)C1=C(OC(OCC)C([Se]c2ccccc2)C(C)C)CCC1 (centres undefined) | 62 | 30.8 | 61 | 20.2 | 39.4 | 20 | > 100 | 31.4 | – | – | – | – | – | – | – | – | – | – | – | –
C/C=C/C(=O)Oc1cccc2cccnc12 | – | 40.1 | > 84.7 | 5.15 | 61.6 | 14.5 | > 100 | 23 | – | – | – | – | – | – | – | – | – | – | – | –
COc1cc(OCc2ccccc2)c2c(CCC(=O)O)cc(=O)oc2c1 (tested in a mixture with another compound) | > 100 | > 100 | > 100 | > 100 | 99.9 | > 100 | > 100 | – | > 100 | > 100 | – | – | – | – | – | – | – | – | – | –
CC(=O)[CH-]C(=O)c1ccccc1.CC(=O)[CH-]C(=O)c1ccccc1.Cl.[O-]c1ccnc2ccccc12.[O-]c1ccnc2ccccc12.[Ti+4] | > 100 | > 100 | > 100 | > 100 | > 100 | > 100 | > 100 | > 100 | – | – | > 100 | – | > 100 | – | > 100 | > 100 | > 100 | > 100 | > 100 | > 100
O=C(O)c1ccc2c(c1)C(=O)N(c1ccc(S(=O)(=O)c3ccc(N4C(=O)c5ccc(C(=O)O)cc5C4=O)cc3)cc1)C2=O | > 100 | > 100 | > 100 | > 100 | > 100 | > 100 | > 100 | > 100 | – | – | – | – | – | – | – | – | – | – | – | –
COC(=O)C1=CC2C(=O)OC1C1C(=O)NC(=O)C21 (centres undefined) | – | > 100 | > 100 | > 100 | > 100 | > 100 | > 100 | > 100 | – | – | – | – | – | – | – | – | – | – | – | –
CCOC(=O)C1=C(C)NC(=O)NC1c1ccc(OC)cc1OC (centres undefined) | > 100 | – | > 100 | > 100 | – | > 100 | > 100 | > 100 | – | – | – | – | – | – | – | – | – | – | – | –
CC(=Nc1ccc(N(C)C)cc1)c1ccccc1 | 29.4 | > 100 | 40.7 | 40.8 | > 100 | – | > 100 | > 100 | 65.1 | > 100 | – | – | – | – | – | – | – | – | – | –
CC1(C)C(=O)OC(n2cc(F)c(=O)[nH]c2=O)C1=O (centres undefined) | > 100 | > 100 | > 100 | > 100 | > 100 | > 100 | > 100 | > 100 | – | – | – | – | – | – | – | – | – | – | – | –
